Test results taken from the supplement of paper PMC10307832.

Tests used:
Test in all cases: relative viability (nuclei count vs DMSO), 5 days (fraction); higher = more cells survive
[1] = compound: Cn1nnc2c(C(N)=O)ncn2c1=O [Temozolomide] + C[C@@H](Oc1cc(-c2cnn(C3CCNCC3)c2)cnc1N)c1c(Cl)ccc(F)c1Cl [Crizotinib] (partner 1 µM)
Summary of the method: (§1)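 The day after seeding in 1536-well plates, lung cancer cell lines were treated by pin tool with a single drug, or with a fixed anchor-drug dose together with five library-drug doses (not always all listed) in √10 steps. After 5 days, a combined fix-and-stain solution (final 0.05% Triton X-100, 1% formaldehyde, 1 ug/ml Hoechst) was added. Nuclei counted on 4× images gave relative viability as treated counts over vehicle counts, reported as the median of duplicate plates.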

AZD5582 + Palbociclib = compound: C[C@@H](C(=O)N[C@@H](C1CCCCC1)C(=O)N2CCC[C@H]2C(=O)N[C@@H]3[C@@H](CC4=CC=CC=C34)OCC#CC#CCO[C@@H]5CC6=CC=CC=C6[C@@H]5NC(=O)[C@@H]7CCCN7C(=O)[C@H](C8CCCCC8)NC(=O)[C@H](C)NC)NC [AZD5582] + CC(=O)c1c(C)c2cnc(Nc3ccc(N4CCNCC4)cn3)nc2n(C2CCCC2)c1=O [Palbociclib] (partner 0.5 µM)
Summary of the method: as §1

AZD5582 + Navitoclax = compound: C[C@@H](C(=O)N[C@@H](C1CCCCC1)C(=O)N2CCC[C@H]2C(=O)N[C@@H]3[C@@H](CC4=CC=CC=C34)OCC#CC#CCO[C@@H]5CC6=CC=CC=C6[C@@H]5NC(=O)[C@@H]7CCCN7C(=O)[C@H](C8CCCCC8)NC(=O)[C@H](C)NC)NC [AZD5582] + CC1(C)CCC(c2ccc(Cl)cc2)=C(CN2CCN(c3ccc(C(=O)NS(=O)(=O)c4ccc(N[C@H](CCN5CCOCC5)CSc5ccccc5)c(S(=O)(=O)C(F)(F)F)c4)cc3)CC2)C1 [Navitoclax] (partner 0.5 µM)
Summary of the method: as §1

[2] = compound: Cn1nnc2c(C(N)=O)ncn2c1=O [Temozolomide] + C[C@]1(O)C[C@@H](c2nc(-c3ccc4ccc(-c5ccccc5)nc4c3)c3c(N)nccn32)C1 [Linsitinib] (partner 1 µM)
Summary of the method: as §1

| Cell Line | relative viability ([1]; first compound 0.2 µM) | relative viability ([1]; first compound 0.6325 µM) | relative viability ([1]; first compound 2 µM) | relative viability ([1]; first compound 6.325 µM) | relative viability ([1]; first compound 20 µM) | relative viability (AZD5582 + Palbociclib; first compound 0.001581 µM) | relative viability (AZD5582 + Palbociclib; first compound 0.005 µM) | relative viability (AZD5582 + Palbociclib; first compound 0.01581 µM) | relative viability (AZD5582 + Palbociclib; first compound 0.05 µM) | relative viability (AZD5582 + Navitoclax; first compound 0.001581 µM) | relative viability (AZD5582 + Navitoclax; first compound 0.005 µM) | relative viability (AZD5582 + Navitoclax; first compound 0.01581 µM) | relative viability (AZD5582 + Navitoclax; first compound 0.05 µM) | relative viability ([2]; first compound 0.2 µM) | relative viability ([2]; first compound 0.6325 µM) | relative viability ([2]; first compound 2 µM) | relative viability ([2]; first compound 6.325 µM) | relative viability ([2]; first compound 20 µM) |
| --- | --- | --- | --- | --- | --- | --- | --- | --- | --- | --- | --- | --- | --- | --- | --- | --- | --- | --- |
| SK-LU-1 | 0.978 | 1.06 | 0.92 | 0.518 | 0.463 | 0.333 | 0.366 | 0.331 | 0.247 | 0.462 | 0.471 | 0.819 | 0.351 | 1.26 | 1.06 | 1.05 | 0.671 | 0.454 |
| SK-MES-1 | 1.14 | 0.969 | 1.03 | 0.947 | 0.997 | 0.286 | 0.32 | 0.332 | 0.291 | 1.22 | 1.3 | 1.25 | 1.15 | 1.14 | 1.09 | 1.07 | 1.13 | 1.05 |
| SW 1573 | 0.801 | 0.787 | 0.82 | 0.594 | 0.846 | 0.352 | 0.451 | 0.402 | 0.407 | 0.848 | 0.926 | 0.82 | 1.32 | 0.74 | 0.738 | 0.737 | 0.579 | 0.659 |
| UMC-11 | 0.774 | 0.646 | 0.692 | 0.632 | 0.333 | 0.345 | 0.324 | 0.394 | 0.339 | 0.333 | 0.299 | 0.335 | 0.321 | 1 | 1.06 | 0.942 | 0.91 | 0.584 |
